This note sets out measurements from PubChem BioAssay AID1259411 (Chemical Carcinogenesis Research Information System (CCRIS), 2018).

In the series the test system is rodent carcinogenicity bioassays, tumor incidence. The series can be described thus: CCRIS carcinogenicity studies. The method in brief:
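Archive of carcinogenicity, mutagenicity, tumor promotion and tumor inhibition results drawn from journals, NCI reports and other sources, expert-reviewed; covers 1985-2011 and is no longer updated.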

Activity calls are given as the source filed them. No rule for the calls is given here.

Take `CCOS(=O)(=O)OCC`: the carcinogen call reads like this: (Species: RAT, Route: ORAL, Tumor Site: Type of Lesion: FORESTOMACH) “active; positive”; (Species: RAT, Route: SUBCUTANEOUS, Tumor Site: Type of Lesion: INJECTION SITE) “active; positive”.
Regarding `Cc1cc2c3c(cccc3c1)-c1ccccc1-2`, the carcinogen call reads like this: (Species: MOUSE, Strain/Sex: CD-1/FEMALE, Route: INTRAPERITONEAL, Dose: 0, 3.46, 17.3 UMOL (TOTAL DOSE) IN DMSO ADMINISTERED ON DAYS 1,8, AND 15 OF LIFE (STUDY DURATION: 52 WK), Dose: 0, 3.46, 17.3 UMOL (TOTAL DOSE) IN DMSO ADMINISTERED ON DAYS 1,8, AND 15 OF LIFE (STUDY DURATION: 52 WK), Tumor Site: Type of Lesion: LUNG: TUMORS, LIVER: TUMORS) “active; positive”; (Species: MOUSE, Strain/Sex: CD-1/MALE, Route: INTRAPERITONEAL, Dose: 0, 3.46, 17.3 UMOL (TOTAL DOSE) IN DMSO ADMINISTERED ON DAYS 1,8, AND 15 OF LIFE (STUDY DURATION: 52 WK), Dose: 0, 3.46, 17.3 UMOL (TOTAL DOSE) IN DMSO ADMINISTERED ON DAYS 1,8, AND 15 OF LIFE (STUDY DURATION: 52 WK), Tumor Site: Type of Lesion: LUNG: TUMORS, LIVER: TUMORS) “active; positive”.
As for `COc1ccc([N+](=O)[O-])cc1N=Nc1c(O)c(C(=O)Nc2cccc([N+](=O)[O-])c2)cc2ccccc12`, the carcinogen call runs as follows: (Species: MOUSE, Strain/Sex: B6C3F1/FEMALE, Route: ORAL, Dose: 0, 10000, 25000, 50000 PPM IN DIET FOR 720 D (STUDY DURATION: 104 WK), Dose: 0, 10000, 25000, 50000 PPM IN DIET FOR 720 D (STUDY DURATION: 104 WK)) “inactive; negative”; (Species: MOUSE, Strain/Sex: B6C3F1/MALE, Route: ORAL, Dose: 0, 10000, 25000, 50000 PPM IN DIET FOR 720 D (STUDY DURATION: 104 WK), Dose: 0, 10000, 25000, 50000 PPM IN DIET FOR 720 D (STUDY DURATION: 104 WK)) “inactive; negative”; (Species: RAT, Strain/Sex: F344/FEMALE, Route: ORAL, Dose: 0, 10000, 25000, 50000 PPM IN DIET FOR 720 D (STUDY DURATION: 105 WK), Dose: 0, 10000, 25000, 50000 PPM IN DIET FOR 720 D (STUDY DURATION: 105 WK)) “inactive; negative”; (Species: RAT, Strain/Sex: F344/MALE, Route: ORAL, Dose: 0, 10000, 25000, 50000 PPM IN DIET FOR 103 WK (STUDY DURATION: 105 WK), Dose: 0, 10000, 25000, 50000 PPM IN DIET FOR 103 WK (STUDY DURATION: 105 WK), Tumor Site: Type of Lesion: KIDNEY: RENAL TUBULE ADENOMA OR CARCINOMA, MULTIPLE ORGANS: MONONUCLEAR CELL LEUKEMIA) “equivocal”.
For the compound `CNC(=O)Oc1cccc2c1OC(C)(C)C2`, the carcinogen call is “inactive; negative” (Species: MOUSE, Strain/Sex: ICR/FEMALE, Route: ORAL, Dose: 0, 3, 8 PPM IN DRINKING WATER FOR 12 MO (STUDY DURATION: 12 MO), Dose: 0, 3, 8 PPM IN DRINKING WATER FOR 12 MO (STUDY DURATION: 12 MO)); “inactive; negative” (Species: MOUSE, Strain/Sex: ICR/MALE, Route: ORAL, Dose: 0, 3, 8 PPM IN DRINKING WATER FOR 12 MO (STUDY DURATION: 12 MO), Dose: 0, 3, 8 PPM IN DRINKING WATER FOR 12 MO (STUDY DURATION: 12 MO)); “inactive; negative (study details not given in source; purity 95.6%)” (Species: Mouse, Strain/Sex: Charles River CD-1/Female (60/group), Route: Oral, Dose: 0, 20, 125, 500 ppm in diet for 2 yrs, Dose: 0, 20, 125, 500 ppm in diet for 2 yrs); “inactive; negative (study details not given in source; purity 95.6%)” (Species: Mouse, Strain/Sex: Charles River CD-1/Male (60/group), Route: Oral, Dose: 0, 20, 125, 500 ppm in diet for 2 yrs, Dose: 0, 20, 125, 500 ppm in diet for 2 yrs); “inactive; negative (study details not given in source; purity 95.6%)” (Species: Rat, Strain/Sex: Charles River CD/Female (60/group), Route: Oral, Dose: 0, 10, 20, 100 ppm in diet for 2 yrs, Dose: 0, 10, 20, 100 ppm in diet for 2 yrs); “inactive; negative (study details not given in source; purity 95.6%)” (Species: Rat, Strain/Sex: Charles River CD/Male (60/group), Route: Oral, Dose: 0, 10, 20, 100 ppm in diet for 2 yrs, Dose: 0, 10, 20, 100 ppm in diet for 2 yrs).
As to `CN1C(=O)C[C@@H](C(=O)N[C@@H](Cc2cnc[nH]2)C(=O)N2CCC[C@H]2C(N)=O)NC1=O`, the carcinogen call reads like this: (Species: MOUSE, Strain/Sex: CD-1/FEMALE, Route: GAVAGE, Dose: 0, 5, 15, 50 MG/KG 1/D 7 D/WK FOR 104 WK (STUDY DURATION: 104 WK), Dose: 0, 5, 15, 50 MG/KG 1/D 7 D/WK FOR 104 WK (STUDY DURATION: 104 WK)) “inactive; negative”; (Species: MOUSE, Strain/Sex: CD-1/MALE, Route: GAVAGE, Dose: 0, 5, 15, 50 MG/KG 1/D 7 D/WK FOR 104 WK (STUDY DURATION: 104 WK), Dose: 0, 5, 15, 50 MG/KG 1/D 7 D/WK FOR 104 WK (STUDY DURATION: 104 WK)) “inactive; negative”; (Species: RAT, Strain/Sex: STRAIN-CD/FEMALE, Route: GAVAGE, Dose: 0, 20, 60, 200 MG/KG 1/D 7 D/WK FOR 94 WK (STUDY DURATION: 94 WK), Dose: 0, 20, 60, 200 MG/KG 1/D 7 D/WK FOR 94 WK (STUDY DURATION: 94 WK)) “inactive; negative”; (Species: RAT, Strain/Sex: STRAIN-CD/MALE, Route: GAVAGE, Dose: 0, 20, 60, 200 MG/KG 1/D 7 D/WK FOR 90 WK (STUDY DURATION: 90 WK), Dose: 0, 20, 60, 200 MG/KG 1/D 7 D/WK FOR 90 WK (STUDY DURATION: 90 WK)) “inactive; negative”.
In the case of `O=C(O)CCCC/C=C(\c1ccccc1)c1cccnc1`, the carcinogen call runs as follows: (Species: MOUSE, Strain/Sex: CD-1/FEMALE, Route: ORAL, Dose: 0, 10, 30, 100, 300 MG/KG/D IN DIET FOR 2 YR (STUDY DURATION: 2 YR), Dose: 0, 10, 30, 100, 300 MG/KG/D IN DIET FOR 2 YR (STUDY DURATION: 2 YR)) “inactive; negative”; (Species: MOUSE, Strain/Sex: CD-1/MALE, Route: ORAL, Dose: 0, 10, 30, 100, 300 MG/KG/D IN DIET FOR 2 YR (STUDY DURATION: 2 YR), Dose: 0, 10, 30, 100, 300 MG/KG/D IN DIET FOR 2 YR (STUDY DURATION: 2 YR)) “inactive; negative”; (Species: RAT, Strain/Sex: STRAIN-CD/FEMALE, Route: ORAL, Dose: 0, 10, 30, 100 MG/KG/D IN DIET FOR 2 YR (STUDY DURATION: 2 YR), Dose: 0, 10, 30, 100 MG/KG/D IN DIET FOR 2 YR (STUDY DURATION: 2 YR)) “inactive; negative”; (Species: RAT, Strain/Sex: STRAIN-CD/MALE, Route: ORAL, Dose: 0, 10, 30, 100 MG/KG/D IN DIET FOR 2 YR (STUDY DURATION: 2 YR), Dose: 0, 10, 30, 100 MG/KG/D IN DIET FOR 2 YR (STUDY DURATION: 2 YR)) “inactive; negative”.
As to `C[C@@H]1O[C@@H](OC[C@H]2O[C@@H](Oc3cc4c(O)cc(O)cc4[o+]c3-c3ccc(O)c(O)c3)[C@H](O)[C@@H](O)[C@@H]2O)[C@H](O)[C@H](O)[C@H]1O`, the carcinogen call runs as follows: (Species: RAT, Strain/Sex: WISTAR/FEMALE, Route: ORAL, Dose: 0, 1.7, 4.1 G/KG/D IN DIET FOR 2 YR (STUDY DURATION: 2 YR), Dose: 0, 1.7, 4.1 G/KG/D IN DIET FOR 2 YR (STUDY DURATION: 2 YR)) “inactive; negative”; (Species: RAT, Strain/Sex: WISTAR/MALE, Route: ORAL, Dose: 0, 1.5, 3.7 G/KG/D DIET FOR 2 YR (STUDY DURATION: 2 YR), Dose: 0, 1.5, 3.7 G/KG/D DIET FOR 2 YR (STUDY DURATION: 2 YR)) “inactive; negative”.
